Experimental data: BindingDB's records for doi:10.1021/jm9012642 (Wyeth Research, 2009)

Target: Serine/threonine-protein kinase mTOR (Homo sapiens, UniProt P42345)
Experiment: mTOR Kinase Assay
Conditions: 25 °C

- IC50: 47 nM
Compound: Oc1cccc(-c2nc(N3CCOCC3)c3cnn(C4CCN(Cc5cccnc5)CC4)c3n2)c1 [JMC527081 Compound 5f]
